In article PMC5805526, “ZB716, a steroidal selective estrogen receptor degrader (SERD), is orally efficacious in blocking tumor growth in mouse xenograft models” (Oncotarget, 2018):
Several values for one entry are separate records, joined by “and”; a condition that tells them apart may be missing. Equal entries are not always repeated. Entries after “also recorded” stand apart in the source; their conditions may differ. Where two headings read alike, the source gives them in different places.

Key:
[1] = Pharmacokinetic study in rats, single oral dose; type: in vivo, Sprague-Dawley rats; conditions: rat; for concentration at 1 h / concentration at 3 h / concentration at 6 h / concentration at 8 h / concentration at 24 h: oral, read-out: Rat plasma concentration of ZB716 after a single oral dose
Procedure: Female Sprague-Dawley rats, weighing between 350 and 400 g (Charles River Laboratories, Portage, MI) were used for the pharmacokinetic study on ZB716. Rats were given oral gavage containing 5% dimethyl sulfoxide (DMSO), 40% polyethylene glycol 400, 55% saline-dissolved ZB716, at doses ranging from 1 mg/kg to 20 mg/kg. After drug administration, blood samples were collected from the lateral tail vein of the rat at 1, 3, 6, 8, 24 h. Rat blood was collected with a capillary into 1.5 mL microcentrifuge tubes containing 0.01 mL of 10 % EDTA anticoagulant. Plasma was then separated from cell pellets by centrifugation in a refrigerated centrifuge at 4°C and transferred to a separate tube. Plasma samples were frozen at −80°C until analysis.
(§1) The plasma samples of 100 μL each were processed for analysis by a TSQ UPLC-MS/MS system. Aliquots of 10 μL of 0.5 ng/μl E-Tamoxifen-2C^13, N^15, 200 μL methanol, and 400 μl chloroform were added to the plasma in a 1.5 mL centrifuge tube in sequence. The sample was vortexed and stored at −20°C for 4 hours, followed by sonication in a Branson B3510MT Ultrasonic Cleaners for 30 min and centrifuged at 12000 RPM on a Heraeus Fresco 21 Refrigerated Micro Centrifuge from Thermo Fisher Scientific for 10 min. The supernatant was dried with a nitrogen gas flow and suspended in 100 μL methanol. Aliquots of 10 μL of the above processed samples were injected into a TSQ Vantage mass spectrometer connected with a heated electrospray ionization probe and a Dionex Ultimat 3000 UHPLC with a Hypersil gold column (50×2.1 mm). The probe setting and front mass spectrometer setting were controlled as follows: spray voltage 3200 voltage, auxiliary gas 10psi, vaporizer temperature 365°C, capillary temperature 300°C, sheath gas 30psi, S-lens RF amplitude 51 voltage. The flow gradient was started with initial 30% mobile phase A of water with 0.05% formic acid to 1 min, to 100% mobile phase B of acetonitrile with 0.05% formic acid at 8 min, and return to 30% mobile phase A at 13 min.

ERα LBD = molecular target: T1, ERα LBD (Homo sapiens, UniProt P03372); test: MARCoNI ERα-coregulator interaction peptide microarray; type: biochemical; conditions: 10 μM compound, 7 nM GST-tagged ERα LBD, vs apo
T1 construct: using 7 nM GST-tagged ERα LBD (Invitrogen); purchased Invitrogen
T1 sequence (P03372 311-547 limits assumed): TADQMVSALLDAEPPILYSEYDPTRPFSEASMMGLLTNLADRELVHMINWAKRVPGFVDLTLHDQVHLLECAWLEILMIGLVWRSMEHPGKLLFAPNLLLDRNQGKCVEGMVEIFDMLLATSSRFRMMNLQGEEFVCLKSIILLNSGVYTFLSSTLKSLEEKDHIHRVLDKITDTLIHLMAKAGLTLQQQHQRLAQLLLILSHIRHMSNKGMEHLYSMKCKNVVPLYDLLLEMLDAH
Procedure: The modulation of ERα-coregulator interaction by compound was analyzed using MARCoNI (Micro Array Assay for Real-time Coregulator Nuclear receptor Interaction) as described previously using 7 nM GST-tagged ERα LBD (Invitrogen).
Each condition is measured using 3 technical replicates (arrays). After incubation, unbound receptor is removed by washing, and a tiff image of each array is acquired using a CCD camera and receptor binding to each peptide on the array is quantified using dedicated software. For each condition, the three technical replicates are used to calculate mean and S.E.M. ERα binding as well as compound-induced log-fold modulation vs. control for each individual motif. Significance of the modulation is assessed using Student's t-Test.

ERα = molecular target: T2, ERα (Homo sapiens, UniProt P03372); test: ER downregulation in MCF-7 cells (Western blot); type: cell-based; conditions: treated for 4 hours, read-out: ERα IC50 (ER downregulation in MCF-7 cells)
T2 construct: MCF-7 cells were plated at a density of 200,000 cells/60mm dish; endogenous in cells; host or cells: MCF-7
T2 sequence (P03372 1-595): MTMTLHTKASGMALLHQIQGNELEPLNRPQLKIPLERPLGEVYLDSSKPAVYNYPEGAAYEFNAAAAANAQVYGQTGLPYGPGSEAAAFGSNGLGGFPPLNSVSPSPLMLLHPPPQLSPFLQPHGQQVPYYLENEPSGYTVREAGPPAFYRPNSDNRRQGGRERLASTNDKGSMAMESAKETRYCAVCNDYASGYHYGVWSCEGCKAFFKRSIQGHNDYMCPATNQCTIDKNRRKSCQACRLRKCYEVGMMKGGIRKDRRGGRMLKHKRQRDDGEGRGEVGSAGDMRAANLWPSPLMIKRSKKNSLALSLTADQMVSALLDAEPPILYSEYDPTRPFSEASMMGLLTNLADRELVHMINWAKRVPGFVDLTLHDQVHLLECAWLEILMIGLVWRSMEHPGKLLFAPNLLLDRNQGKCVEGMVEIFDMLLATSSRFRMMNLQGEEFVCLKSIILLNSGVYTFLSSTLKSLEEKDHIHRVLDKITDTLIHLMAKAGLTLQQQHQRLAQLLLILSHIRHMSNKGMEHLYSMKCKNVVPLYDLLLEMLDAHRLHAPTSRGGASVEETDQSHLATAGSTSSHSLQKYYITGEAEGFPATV
Procedure: MCF-7 cells were plated at a density of 200,000 cells/60mm dish. Media containing the same drug concentrations as the growth curve assay were added on the day following plating (day 0) and allowed to incubate for 5 days for Western blot. Media with the tested compound was changed every other day. Cells were lysed. Lysates were placed on a rotisserie at 4°C for 30 min and then spun at 4°C at 12,000 rcf for 10 min. Supernatants were assayed for protein content, snap-frozen, and stored at −80°C if not run immediately. 50 μg of protein was subjected to Western blot protocol. Membranes were blocked and then incubated with 1:200 dilution of ERα antibody at 4°C overnight followed by 1:10,000 dilution of secondary antibody for 1 hr at room temperature. They were then imaged on a LICOR infrared scanner.

[2] = test system: MCF-7 breast cancer cells; test: MCF-7 cell growth inhibition; type: cell-based; conditions: Homo sapiens, MCF7, 120 h; 5 days treatment, cell count vs DMSO
Procedure: At the end of treatment, surviving cells were counted and normalized to control cells that were treated with vehicle (DMSO) only. (B) IC50 values were obtained by deriving logarithmic curves from the %cell survival vs. treatment dose plot.

[3] = Drug concentrations in final plasma and tumor tissue of MCF-7 xenograft mice; type: in vivo; conditions: for concentration at 3 weeks: female, Nu/Nu, mouse, end of study
Procedure: as §1

[4] = test system: TM00386 PDX ER+/PR+/HER2- invasive ductal carcinoma; test: Efficacy in patient derived xenograft (PDX) tumor model; type: in vivo, NOD scid gamma (NSG) mice
From the text: Tumor sizes were monitored and recorded every other day for three weeks of treatment duration.

[5] = female, Sprague-Dawley, plasma, 1 mg/kg
[6] = female, Sprague-Dawley, plasma, 5 mg/kg
[7] = female, Sprague-Dawley, plasma, 10 mg/kg
[8] = female, Sprague-Dawley, plasma, 20 mg/kg

For `C[C@]12CC[C@@H]3c4ccc(B(O)O)cc4C[C@@H](CCCCCCCCC[S+]([O-])CCCC(F)(F)C(F)(F)F)[C@H]3[C@@H]1CC[C@@H]2O` (stereo partly drawn) [ZB716], the concentration at 1 h [1, 5] was 14.8 ± 6.51 ng/mL, the concentration at 3 h [1, 5] was 9.23 ± 2.33 ng/mL and the concentration at 6 h [1, 5] was 4.7 ± 1.66 ng/mL. It also gave a concentration at 8 h [1, 5] of 4.42 ± 2.38 ng/mL, a concentration at 24 h [1, 5] of 1.36 ± 1.42 ng/mL and a concentration at 1 h [1, 6] of 46.5 ± 4.81 ng/mL. The concentration at 3 h [1, 6] was 23.4 ± 2.8 ng/mL, the concentration at 6 h [1, 6] was 15.9 ± 2.03 ng/mL and the concentration at 8 h [1, 6] was 11.4 ± 0.52 ng/mL. The concentration at 24 h [1, 6] was 9.37 ± 1.24 ng/mL, the concentration at 1 h [1, 7] was 218 ± 27.8 ng/mL and the concentration at 3 h [1, 7] was 93.6 ± 21.8 ng/mL. The concentration at 6 h [1, 7] was 62 ± 14.9 ng/mL, the concentration at 8 h [1, 7] was 60.7 ± 13.9 ng/mL and the concentration at 24 h [1, 7] was 33.1 ± 10.6 ng/mL. The concentration at 1 h [1, 8] was 1040 ± 153 ng/mL, the concentration at 3 h [1, 8] was 671 ± 125 ng/mL and the concentration at 6 h [1, 8] was 371 ± 111 ng/mL. For the same compound, the concentration at 8 h [1, 8] was 300 ± 118 ng/mL, the concentration at 24 h [1, 8] was 98.5 ± 36.1 ng/mL and the Tmax ([1]; female, Sprague-Dawley, plasma, all four oral doses (1, 5, 10, 20 mg/kg), read-out: time of peak concentration in rat plasma) was 1 h. For the same compound, the peak plasma concentration ([1]; 20 mg/kg oral, 20 mg/kg) was “over 1000 ng/mL and > 1.6 μM”, the “modulation of ERα interaction with coactivator motifs (NCOA family)” value (ERα LBD) was “strongly reduced” and the DC50 (ERα) was 0.8 nM. The IC50 [2] was 3.2 nM, the “drug accumulation in tumor tissue relative to fulvestrant treated mice” value ([3]; ZB716 10 mg/kg dose group) was 4 fold and the “final plasma concentration relative to fulvestrant treatment group” value ([3]; ZB716 10 mg/kg dose group) was “over 6 fold”. The “drug concentration in tumor tissue relative to fulvestrant treated mice” value ([3]; ZB716 30 mg/kg dose group) was 10 fold, the “final plasma concentration relative to fulvestrant treatment group” value ([3]; ZB716 30 mg/kg dose group) was over 20 fold and the concentration at 3 weeks ([3]; plasma, treatment ZB716 10 mg/kg daily PO, read-out: Average concentration in final plasma) was 182 ng/mL. For the same compound, the concentration at 3 weeks ([3]; plasma, treatment ZB716 30 mg/kg daily PO, read-out: Average concentration in final plasma) was 692 ng/mL, the concentration at 3 weeks ([3]; tumor tissue, treatment ZB716 10 mg/kg daily PO, read-out: Average concentration in tumor tissue) was 506 ng/mL and the concentration at 3 weeks ([3]; tumor tissue, treatment ZB716 30 mg/kg daily PO, read-out: Average concentration in tumor tissue) was 1540 ng/mL. For the same compound, the PDX tumor growth ([4]; ZB716 5 mg/kg PO daily) was “as effectively as fulvestrant treatment”, the “PDX tumor growth inhibition” value ([4]; ZB716 20 mg/kg PO daily) was “greatest effect on tumor growth inhibition” and the PDX tumor growth ([4]; ZB716 at both doses (5 and 20 mg/kg PO daily)) was “effective in blocking tumor growth; also recorded: regression of tumor comparable to the fulvestrant group”.
